Reference: patent EP3685668B1, “COMPOSITION COMPRISING ACIBENZOLAR-S-METHYL AS EFFECTIVE INGREDIENT FOR CONTROLLING BURSAPHELENCHUS XYLOPHILUS DISEASE AND METHOD FOR CONTROLLING BURSAPHELENCHUS XYLOPHILUS USING SAME” (Industry Foundation of Chonnam National University, priority 2017, dated 2019)

How the values were obtained:
Xyloglucan = experiment: qRT-PCR expression of induced resistance gene in pine tree callus; type: cell-based; details: concentration series
PR_3 family class 1 = experiment: as above; type: cell-based; details: concentration series, 2 µg/mℓ
[1] = tested on: Bursaphelenchus xylophilus; experiment: In vitro nematicidal activity, 96-well microplate; details: after 3 days
Experimental: To test the nematicidal activity of acibenzolar-S-methyl, a suspension of Bursaphelenchus xylophilus was diluted in a 96-well microplate to have 50 worms/99 µℓ in each well and used for the treatment. […] Each treatment was repeated 3 times, and "A Pharm" (emamectin benzoate, 2.15%), which is a chemical pesticide, was used as a control group. After the treatment, the 96-well plate was kept in a plastic box having water-soaked wipes spread on the bottom to maintain 100% humidity, and, after covering the box with black cloth, the box was stored in a dark state with blockage of light. The observation was made after 3 days. […] [Table 2] Nematicidal activity of acibenzolar-S-methyl against Bursaphelenchus xylophilus

Heat shock 70 = experiment: qRT-PCR expression of induced resistance gene in pine tree callus; type: cell-based; details: concentration series, 2 µg/mℓ
PR_2 family = experiment: as above; type: cell-based; details: concentration series, 2 µg/mℓ
[2] = tested on: Bursaphelenchus xylophilus; experiment: Control efficacy against pine wilt disease by trunk injection, foliar spraying or soil drenching, greenhouse, red pine trees; type: in vivo; details: red pine tree, observed for 80 days
Experimental: The control efficacy of acibenzolar-S-methyl, which shown to have the highest activity in Example 1, was determined by three different treatment methods, i.e., trunk injection, foliar spraying, and soil drenching. For in vivo pathogenesis test, 2-year old young red pine trees (diameter of 5.5 mm or so, and height of about 35 mm) were used like Example 2.
For the trunk injection, a borehole was created at an angle of 45° by using an electric drill with thickness of 1.5 mm on a pine stem part that is 5 to 10 cm above the soil surface, a tip (200 µℓ) was inserted to the hole, and the working solution of chemicals was injected in an amount of 100 µℓ per pine tree after dissolving acibenzolar-S-methyl at concentration of 0.2 or 10 mg/mℓ in an aqueous solution containing 10% acetone and 10% methanol. After the treatment, the end part of the tip was sealed with parafilm, and a small hole was created thereon as an airflow hole. For the foliar spraying, a pre-treatment with Tween 20 (250 µg/mℓ) was carried out at 5 mℓ per pine tree to help the adsorption of the chemical on pine leaves, followed by drying for 2 hours. After drying, acibenzolar-S-methyl was dissolved at concentration of 1.6 mg/mℓ in an aqueous solution containing 10% acetone and Tween 20 (250 µg/mℓ) and the dissolved solution was filled in microsprayer and was applied 5 mℓ per pine tree by foliar spraying. For the soil drenching, acibenzolar-S-methyl was dissolved at concentration level of 0.2 mg/mℓ in an aqueous solution containing 10% acetone and Tween 20 (250 µg/mℓ), and this solution was used for soil drenching in a pot with planted pine tree, 40 mℓ per pine tree. […] [Table 3] The control efficacy of acibenzolar-S-methyl against pine wilt disease by various treatment methods

PR_1b family = experiment: qRT-PCR expression of induced resistance gene in pine tree callus; type: cell-based; details: concentration series
Antipeptide = experiment: as above; type: cell-based; details: concentration series
[3] = tested on: induced resistance-related genes; experiment: qRT-PCR expression of induced resistance genes in pine tree callus, overall statement; type: cell-based; details: 200 µg/mℓ
Experimental: For in vitro analysis of induced resistance, the expression of PR genes and other plant defense-related genes was determined, which are evolved in various defense mechanisms including induced resistance. The primers of sixteen induced resistance-related genes of pine tree used in this invention were listed in the below and elongation factor_1 alpha were used as a reference gene. [Table 4] The primer list of defense resistance-related genes
After the treatment with 200 µg / mℓ of candidates of the selected induced resistance material, expression of the induced resistance-related gene in pine callus was determined by qRT-PCR using the primer pairs of defense resistance-related genes in Table 4. As a candidate group of an induced resistance material in pine tree, acibenzolar-S-methyl (ASM), TDL (Tiadinil), ITL (Isotianil), PBZ (Probenzole), AZO (Azoxystrobin), VMA (Validamycin A), MeJA (Methyl jasmonate), BABA (DL-3-aminobutyric acid), 2,3-BDO (2,3-Butanediol), GABA (r-Aminobutyric acid), glucan (Glucan), ER (Ergosterol), and AZA (Azelaic acid) were used. For the in vitro analysis of the expression of induced resistance gene in pine callus, the selected induced resistance materials were applied with 500 µℓ of LM liquid medium on a surface of pine tree callus (100 mg) in 12-well microplate to give final concentration of 200 µg/mℓ. Then, the callus surface was sufficiently reacted for 24 hours with the candidate of pine tree induced resistance material by shaking at 50 rpm in a 25 °C shaking incubator under dark condition. RNAs were extracted from the callus after completion of the reaction with an induced resistance material, followed by synthesis of cDNAs. Then, by carrying out qRT-PCR, the expression of induced resistance genes was determined. [Table 5] Expression of induced resistance gene in pine tree callus by TDL, PBZ, ASM, ITL, AZO, VMA, glucan, and AZA

[4] = Foliar spraying, 1,600 µg/mℓ, 5 mℓ per tree
[5] = Soil drenching, 200 µg/mℓ, 40 mℓ per tree

## CSC(=O)c1cccc2nnsc12 [ASM, acibenzolar-S-methyl]
Xyloglucan; 2 µg/mℓ
  Gene expression level, Xyloglucan: 7.013
Xyloglucan; 20 µg/mℓ
  Gene expression level, Xyloglucan: 5.389
PR_3 family class 1
  Gene expression level, PR_3 family class 1: 3.945
[1]; 33.3 µg/mℓ
  Nematicidal rate (%): 1.72%
[1]; 100 µg/mℓ
  Nematicidal rate (%): 1.94%
[1]; 300 µg/mℓ
  Nematicidal rate (%): 2.24%
[1]; second stage larvae, 300, 100 or 33.3 µg/mℓ
  nematicidal activity: no nematicidal activity
Heat shock 70
  Gene expression level, Heat shock 70: 22.47
PR_2 family
  Gene expression level, PR_2 family: 1.828
[2]; [4]
  Control value (%): 61%
  Disease occurrence rate (%): 28%
[2]; [5]
  Control value (%): 97%
  Disease occurrence rate (%): 2%
[2]; Trunk injection, 200 µg/mℓ
  Control value (%): 77%
  Disease occurrence rate (%): 16%
[2]; Trunk injection, 10,000 µg/mℓ
  Control value (%): 27%
  Disease occurrence rate (%): 52%
PR_1b family; 2 µg/mℓ
  Gene expression level, PR_1b family: 1.064
PR_1b family; 20 µg/mℓ
  Gene expression level, PR_1b family: 1.248
Antipeptide; 2 µg/mℓ
  Gene expression level, Antipeptide: 5.816
Antipeptide; 20 µg/mℓ
  Gene expression level, Antipeptide: 7.111
[3]
  expression of induced resistance-related genes is induced overall: ≥ 2 times
  expression of most PR genes was enhanced: ≥ 2 times

## NCCCC(=O)O [GABA, r-Aminobutyric acid]
[3]
  expression of induced resistance-related genes is induced overall: ≥ 2 times

## OCC1=C[C@@H](N[C@H]2C[C@H](CO)[C@@H](O[C@H]3O[C@@H](CO)[C@H](O)[C@@H](O)[C@@H]3O)[C@H](O)[C@H]2O)[C@H](O)[C@@H](O)[C@@H]1O [VMA, Validamycin A]
[3]
  expression of induced resistance-related genes is induced overall: ≥ 2 times
